Measurements from PubChem BioAssay (NCI).
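These data come from cells grown in 96-well plates and exposed to compound for 48 hours at five concentrations. GI50: concentration for 50% inhibition of growth. Definition used: TGI = concentration required for complete inhibition of growth.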

Assays:
Experiment in all cases: growth of human tumour cells (NCI), 48 h
[1] = system: NCI-H23 lung
[2] = system: SN12C renal
[3] = system: SK-MEL-28 melanoma
[4] = system: HCT-15 colon
[5] = system: A498 renal
[6] = system: HOP-62 NSCLC
[7] = system: SF-295 CNS
[8] = system: HCT-116 colon
[9] = system: EKVX NSCLC
[10] = system: RPMI-8226 leukemia

Structure (SMILES)	TGI [1] [µM]	TGI [2] [µM]	TGI [3] [µM]	TGI [4] [µM]	TGI [5] [µM]	TGI [6] [µM]	TGI [7] [µM]	TGI [8] [µM]	TGI [9] [µM]	TGI [10] [µM]	GI50 [3] [µM]	GI50 [4] [µM]	GI50 [5] [µM]	GI50 [1] [µM]	GI50 [2] [µM]	GI50 [6] [µM]	GI50 [7] [µM]	GI50 [8] [µM]	GI50 [10] [µM]	GI50 [9] [µM]
CN(C)[C@@H]1C(=O)C(C(=O)NCNCCCC(=O)O)=C(O)[C@@]2(O)C(=O)C3=C(O)c4c(O)cccc4[C@@](C)(O)[C@H]3C[C@@H]12	> 100	> 100	> 100	> 100	> 100	> 100	> 100	> 100	> 100	> 100										
Cc1cc(=O)[nH]c(NN2C(Cl)C(=O)C2c2cccc([N+](=O)[O-])c2)n1 (configuration not stated)	52.4	37.6	47.2	31.5		> 100		49.9	> 100	40.3										
N=C(N)c1ccc(-c2ccc(-c3ccc(Cl)cn3)s2)cc1			3.07	3.08	17.3						1.67	1.61	3.82							
CCN(CC)Cc1ccc2cccnc2c1O	> 100	47.2	> 100	18.5	33.5	65.4	51.2	41.8	> 100	23.7										
O=C1c2ccccc2C(=O)c2c(NCCNC(=O)C3CCCN3)ccc(NCCNC(=O)C3CCCN3)c21 (configuration not stated)	> 100	> 100	> 100	> 100		> 100	> 100	27.5	> 100	58.8										
CN(C)c1ccc2nc3c(C(=O)O)cc(=O)c(O)c-3oc2c1	33.6	64.6	> 100	> 100	> 100	> 100	> 100	80.1	81	95.2										
COc1ccc(-n2c3c(c4cc(O)ccc42)C(=O)c2ccccc2C3=O)cc1	> 100	92.9	> 100	> 100	22.5	12.7	17.6	1.25	43	> 100										
O=C(CC1(O)C(=O)Nc2ccc(Br)cc21)c1ccc(C(=O)NCC2CCC3(CC2)OOC2(CCCCC2)OO3)cc1 (configuration not stated)	32	34.9	46	34.3	30.2	40.7	35	30		4.47	11.1	4.59	14.7	6.43	10.4	11	7.1	3.09	1.65	
CN(C)CCNC(=O)c1cccc2nc3c4ccccc4c4ccccc4c3nc12	3.41	3.64	3.27	3.13	15.6	34.2	10.1	3.21	11	5.3										
Cc1ccc(C)c(/C(=N\N=C(N)N)C2CC2)c1	66.7	> 100	> 100	> 100	> 100	> 100	> 100	82.7	> 100	> 100										
C[n+]1cccc(/C=C/c2ccc3cccc(O)c3n2)c1	> 100	> 100	> 100	> 100	> 100	> 100	> 100	> 100	> 100	> 100										
C[C@H]1CCC/C=C/[C@@H]2C[C@H](O)C[C@H]2[C@H](O)[C@@H](S(=O)CCN)CC(=O)O1 (some centres not stated)	1.74	0.472	> 100	10.8	0.126	> 58.9	> 100	0.169	> 100	2.71	0.0475	0.28	0.0322	0.044	0.085	0.13	0.117	0.0569	0.294	0.0891
COc1cnc2c(c1)C(=O)c1c-2n(CCCN2CCNCC2)c(=O)c2cc(Cl)ccc12					2.28								0.551							
Oc1cc(O)cc(/C=C/c2ccc(O)c(O)c2)c1	40.2	40.8	> 100	> 100	> 70	28.7	60	20.9	> 100	> 93.8										
COc1cc2ccc1-c1cc(ccc1O)CC1c3cc4c(cc3CCN1C)Oc1c(OC)cc3c(c1O4)C(C2)N(C)CC3 (configuration not stated)	3.9	3.96	2.89	3.12	3.79	3.65	3.33	2.89	4.57	4.75										
CCOC(=O)c1c2c(c(O)c3ccccc3c(O)n(-c3ccc(C)cc3)c1C)C(=O)C=CC2=O	52	58.9		34.7		61.7	37	38.3	85.5	30.3										
CC[C@H](Nc1nc(N)nc(N)c1Cl)c1nc2cccc(NCc3ccc(C(=O)NO)cc3)c2c(=O)n1-c1ccccc1		4.78	3.21	4.75	2.71	4.04			3.78	5.92	1.55	2.02	1.34		1.78	1.67			2.15	1.75
COc1ccc(CNc2nc(NCc3ccc(OC)cc3)nc(NC(C)C)n2)cc1	30.8		> 100	> 100	47.1	37.5	> 100	12.4	93.2	5.3										
Cc1c2ccnc(-c3ccccc3)c2cc2c1[nH]c1ccccc12	19.9	7	19.5	9.62	10.6	6.61	5.45	4.61	12.5	8.25										
COc1cc2c(cc1OC)C(Cl)C(c1ccc(Cl)cc1)=C2Cl (configuration not stated)	41.1	48.6	41.4	41.4	46		30		59.7	45.6										
c1ccc2c[n+](CCCCCCCCCC[n+]3ccc4ccccc4c3)ccc2c1	> 10	> 8.94	> 10	> 10	> 10	> 10	> 10	> 10	> 10	> 10										
